Measurements reported in PubChem BioAssay AID1963961 (Molecular Pharmacology Branch, DTP, NCI, 2024).

System: K98450-129-R-PDC multicell spheroids, viability
Experiment: Anticancer human tumor K98450-129-R-PDC patient-derived colon adenocarcinoma cell line growth inhibition [PI3K]
Details: for IC50: curve of first compound; for viability, T/C: stronger effect = lower value; active means viability on the fitted dose curve at most 10% of control; inactive means the rest
In short: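 Viability of mixed-cell spheroids was determined after exposure to pairwise combinations, one partner being inavolisib, alpelisib, duvelisib or copanlisib. Highest tested concentration matched clinical Cmax where known and 10 microM where not, descending in half-log steps.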

[1] = second compound 0.0316 µM, first compound 0.0316 µM
[2] = second compound 0.0316 µM, first compound 0.1 µM
[3] = second compound 0.0316 µM, first compound 0.316 µM
[4] = second compound 0.0316 µM, first compound 1 µM
[5] = second compound 0.0316 µM, first compound 3.16 µM
[6] = second compound 0.0316 µM, first compound 10 µM
[7] = second compound 0.1 µM, first compound 0.0316 µM
[8] = second compound 0.1 µM, first compound 0.1 µM
[9] = second compound 0.1 µM, first compound 0.316 µM
[10] = second compound 0.1 µM, first compound 1 µM
[11] = second compound 0.1 µM, first compound 3.16 µM
[12] = second compound 0.1 µM, first compound 10 µM
[13] = second compound 0.316 µM, first compound 0.0316 µM
[14] = second compound 0.316 µM, first compound 0.1 µM
[15] = second compound 0.316 µM, first compound 0.316 µM
[16] = second compound 0.316 µM, first compound 1 µM
[17] = second compound 0.316 µM, first compound 3.16 µM
[18] = second compound 0.316 µM, first compound 10 µM
[19] = second compound 1 µM, first compound 0.0316 µM
[20] = second compound 1 µM, first compound 0.1 µM
[21] = second compound 1 µM, first compound 0.316 µM
[22] = second compound 1 µM, first compound 1 µM
[23] = second compound 1 µM, first compound 3.16 µM
[24] = second compound 1 µM, first compound 10 µM
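Further: spheroids exposed to agents for seven days before read-out.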

C=CC(=O)N1CCN(c2nc(=O)n(-c3c(C)ccnc3C(C)C)c3nc(-c4c(O)cccc4F)c(F)cc23)C(C)C1 (centres undefined) + CC(Nc1ccc2c(c1)OCCn1cc(N3C(=O)OCC3C(F)F)nc1-2)C(N)=O
inactive: viability, T/C (second compound 0.00316 µM, first compound 0.0316 µM) 108% | viability, T/C (second compound 0.00316 µM, first compound 0.1 µM) 92.8% | viability, T/C (second compound 0.00316 µM, first compound 0.316 µM) 95.1% | viability, T/C (second compound 0.00316 µM, first compound 1 µM) 76.7% | viability, T/C (second compound 0.00316 µM, first compound 3.16 µM) 50.8% | viability, T/C (second compound 0.00316 µM, first compound 10 µM) 31.1% | viability, T/C (second compound 0.01 µM, first compound 0.0316 µM) 108% | viability, T/C (second compound 0.01 µM, first compound 0.1 µM) 95.8% | viability, T/C (second compound 0.01 µM, first compound 0.316 µM) 110% | viability, T/C (second compound 0.01 µM, first compound 1 µM) 83.8% | viability, T/C (second compound 0.01 µM, first compound 3.16 µM) 56.5% | viability, T/C (second compound 0.01 µM, first compound 10 µM) 28.9% | viability, T/C [1] 107% | viability, T/C [2] 97.7% | viability, T/C [3] 95.5% | viability, T/C [4] 79.7% | viability, T/C [5] 54.1% | viability, T/C [6] 31% | viability, T/C [7] 92.4% | viability, T/C [8] 100% | viability, T/C [9] 94.8% | viability, T/C [10] 82.8% | viability, T/C [11] 48.8% | viability, T/C [12] 24.9% | viability, T/C [13] 88.7% | viability, T/C [14] 97.7% | viability, T/C [15] 107% | viability, T/C [16] 75.4% | viability, T/C [17] 39.3% | viability, T/C [18] 25.2% | viability, T/C [19] 85.6% | viability, T/C [20] 92.1% | viability, T/C [21] 83.7% | viability, T/C [22] 67% | viability, T/C [23] 35.8% | viability, T/C [24] 19%
3.99 µM: IC50 (second compound 0.0316 µM)
1.87 µM: IC50 (second compound 1 µM)
3.53 µM: IC50 (second compound 0.00316 µM)
2.2 µM: IC50 (second compound 0.316 µM)
3.02 µM: IC50 (second compound 0.1 µM)
3.98 µM: IC50 (second compound 0.01 µM)

C[C@@H](NC(=O)c1ncnc(N)c1Cl)c1ncc(C(=O)Nc2cc(C(F)(F)F)c(Cl)cn2)s1 + Cc1nc(NC(=O)N2CCCC2C(N)=O)sc1-c1ccnc(C(C)(C)C(F)(F)F)c1
> 10 µM: IC50 (second compound 0.0316 µM) | IC50 (second compound 0.1 µM) | IC50 (second compound 0.316 µM) | IC50 (second compound 1 µM) | IC50 (second compound 3.16 µM) | IC50 (second compound 10 µM)
inactive: viability, T/C [1] 104% | viability, T/C [2] 106% | viability, T/C [3] 119% | viability, T/C [4] 117% | viability, T/C [5] 112% | viability, T/C [6] 103% | viability, T/C [7] 117% | viability, T/C [8] 98.2% | viability, T/C [9] 119% | viability, T/C [10] 104% | viability, T/C [11] 112% | viability, T/C [12] 104% | viability, T/C [13] 107% | viability, T/C [14] 104% | viability, T/C [15] 106% | viability, T/C [16] 108% | viability, T/C [17] 110% | viability, T/C [18] 103% | viability, T/C [19] 92.6% | viability, T/C [20] 99% | viability, T/C [21] 105% | viability, T/C [22] 102% | viability, T/C [23] 111% | viability, T/C [24] 90% | viability, T/C (second compound 3.16 µM, first compound 0.0316 µM) 84.8% | viability, T/C (second compound 3.16 µM, first compound 0.1 µM) 90.3% | viability, T/C (second compound 3.16 µM, first compound 0.316 µM) 96.5% | viability, T/C (second compound 3.16 µM, first compound 1 µM) 91.7% | viability, T/C (second compound 3.16 µM, first compound 3.16 µM) 95.8% | viability, T/C (second compound 3.16 µM, first compound 10 µM) 75.1% | viability, T/C (second compound 10 µM, first compound 0.0316 µM) 76.5% | viability, T/C (second compound 10 µM, first compound 0.1 µM) 74.3% | viability, T/C (second compound 10 µM, first compound 0.316 µM) 83.7% | viability, T/C (second compound 10 µM, first compound 1 µM) 76.8% | viability, T/C (second compound 10 µM, first compound 3.16 µM) 72.5% | viability, T/C (second compound 10 µM, first compound 10 µM) 58.5%
